Results taken from patent US9981940B2, “Aryl sulfide derivatives and aryl sulfoxide derivatives as acaricides and insecticides” (BAYER CROPSCIENCE AKTIENGESELLSCHAFT, priority 2013, dated 2018).

Key:
Tetranychus urticae = Tetranychus urticae spray test, OP-resistant (TETRUR); assay type: in vivo; settings: after 6 days; for pest or weed control at 500 g/ha: Tetranychus urticae, 144 h, read-out: efficacy
Experimental: Tetranychus urticae—Spray Test, OP-Resistant (TETRUR)
• Solvent: 78.0 parts by weight of acetone • 1.5 parts by weight of dimethylformamide • Emulsifier: 0.5 part by weight of alkylaryl polyglycol ether
To produce an appropriate active ingredient formulation, 1 part by weight of active ingredient is mixed with the specified amounts of solvent and emulsifier, and the concentrate is diluted to the desired concentration with emulsifier-containing water.
Discs of bean leaves (Phaseolus vulgaris) infested by all stages of the greenhouse red spider mite (Tetranychus urticae) are sprayed with an active ingredient formulation of the desired concentration.
After 6 days, the efficacy in % is determined 100% means that all the spider mites have been killed; 0% means that none of the spider mites have been killed.

[1] = log P by HPLC (OECD Guideline 117), method [a] acidic range; assay type: physicochemical; settings: for chromatographic logP: reversed-phase C18 HPLC column, acidic range; for logP[a]: HPLC, method [a] acidic range
Experimental: (§1) The log P values were determined analogously to OECD Guideline 117 (EC Directive 92/69/EEC) by HPLC (high-performance liquid chromatography) using reversed-phase columns (C 18), by the following methods:
[a] The LC-MS determination in the acidic range is effected at pH 2.7 with 0.1% aqueous formic acid and acetonitrile (contains 0.1% formic acid) as eluents; linear gradient from 10% acetonitrile to 95% acetonitrile.

[2] = log P by HPLC (OECD Guideline 117), method [b] neutral range; assay type: physicochemical; settings: for chromatographic logP: reversed-phase C18 HPLC column, neutral range, pH 7.8; for logP[b]: method [b] neutral range
Experimental: as §1
[b] The LC-MS determination in the neutral range is effected at pH 7.8 with 0.001 molar aqueous ammonium hydrogencarbonate solution and acetonitrile as eluents; linear gradient from 10% acetonitrile to 95% acetonitrile.

[3] = pH 2.7, HPLC method [a], read-out: logP[a]

Row | Structure (SMILES) | efficacy (Tetranychus urticae; application rate of 500 g/ha) | logP[a] [1] | logP[b] ([2]; HPLC) | further results
1 | Cc1cc(F)c(-n2nnn(-c3ccc(Cl)cc3)c2=O)cc1[S+]([O-])CC(F)(F)F (stereo not shown) [Example 307, 1-(4-Chlorophenyl)-4-{2-fluoro-4-methyl-5-[(2,2,2-trifluoroethyl)sulphinyl]phenyl}-1,4-dihydro-5H-tetrazol-5-one] | – | – | – | pest or weed control at 500 g/ha (Tetranychus urticae; application rate of 500 g/ha): 100%; chromatographic logP [1, 3]: 3.53; chromatographic logP ([1]; pH 2.7, HPLC, pH 2.7, read-out: log P[a]): 3.53; chromatographic logP ([2]; HPLC): 3.49
2 | O=c1n(-c2ccc(Br)c(SCC(F)(F)F)c2)nc(OCC(F)(F)F)n1C1CC1 [Example 378] | 90% | 4.43 | 4.48 | –
3 | CCCOc1nn(-c2cc(SCC(F)(F)F)c(C)cc2F)c(=O)n1CC [Example 400] | 100% | 4.06 | 3.96 | –
4 | O=c1n(-c2ccc(Cl)c(SCC(F)(F)F)c2)nc(C(F)(F)F)n1C1CC1 [Example 51] | 90% | 4.43 | 4.39 | –
5 | COc1nn(-c2cc([S+]([O-])CC(F)(F)F)c(C)cc2F)c(=O)n1C1CC1 (single isomer, unassigned) [Example 380] | 100% | 2.14 | 2.09 | –
6 | COC1=CC(=O)N(c2cc(SCC(F)(F)F)c(Cl)cc2F)C1 [Example 327] | 90% | 2.97 | 2.92 | –
7 | CCCOc1nn(-c2cc(SCC(F)(F)F)c(C)cc2F)c(=O)n1C1CC1 [Example 113] | 90% | 4.00 | 3.92 | –
8 | Cc1cc(F)c(-n2nc(C(C)C)n(C3CC3)c2=O)cc1SCC(F)(F)F [Example 44] | 100% | 3.59 | 3.52 | –
9 | CCOCc1nn(-c2cc(SCC(F)(F)F)c(C)cc2F)c(=S)n1C1CC1 [Example 500] | 100% | 3.82 | 3.77 | –
10 | COCc1nn(-c2cc([S+]([O-])CC(F)(F)F)c(C)cc2F)c(=O)o1 (racemic) [Example 453] | 100% | 2.08 | 2.10 | –
11 | CCCOc1nn(-c2ccc(C)c(SCC(F)(F)F)c2)c(=O)n1C1CC1 [Example 123] | 100% | 4.66 | 4.57 | –
12 | Cc1cc(F)c(-n2c(C)c(C)sc2=NCC(F)(F)F)cc1[S+]([O-])CC(F)(F)F (stereo not shown) [Example 344] | – | – | – | pest or weed control at 500 g/ha (Tetranychus urticae; application rate of 500 g/ha): 100%; chromatographic logP [1, 3]: 2.17; chromatographic logP ([2]; HPLC method [b]): 3.68
13 | C=CCn1c(OCC(F)(F)F)nn(-c2cc([S+]([O-])CC(F)(F)F)c(C)cc2F)c1=O (stereo not shown) [Example 407] | 90% | 2.94 | 2.90 | –
14 | Cc1cc(F)c(-n2nc(C(F)(F)F)n(C(C)C)c2=O)cc1[S+]([O-])CC(F)(F)F (stereo not shown) [Example 363] | 100% | 3.22 | 3.18 | –
15 | CCC[S+]([O-])c1nn(-c2cc([S+]([O-])CC(F)(F)F)c(C)cc2F)c(=O)n1CC (stereo not shown) [Example 251] | 100% | 2.22 | 2.18 | –
16 | CCn1c(Cl)nn(-c2cc([S+]([O-])CC(F)(F)F)c(C)cc2F)c1=O (stereo not shown) [Example 436] | 100% | 2.34 | 2.30 | –
17 | CCOc1nn(-c2cc(SCC(F)(F)F)c(C)cc2F)c(=O)n1C [Example 129] | 90% | 3.19 | 3.14 | –
18 | Cc1cc(F)c(-n2nc(SC(F)(F)F)n(C)c2=O)cc1[S+]([O-])CC(F)(F)F (racemic) [Example 284] | 100% | 2.65 | 2.60 | –
19 | Cc1cc(F)c(-n2nc(OCC(C)C)n(C)c2=O)cc1SCC(F)(F)F [Example 148] | 90% | 4.03 | 3.92 | –

Row | Structure (SMILES) | efficacy (Tetranychus urticae; application rate of 500 g/ha) | logP[a] [1] | logP[b] ([2]; HPLC) | further results
20 | Cc1cc(F)c(-n2ncn(C3CC3)c2=O)cc1[S+]([O-])CC(F)(F)F (racemic) [Example 62] | – | 1.69 | 1.69 | efficacy (Tetranychus urticae; application rate of 100 g/ha): 100%
21 | COn1c(C(C)C)nn(-c2cc(SCC(F)(F)F)c(C)cc2F)c1=O [Example 418] | 90% | 3.52 | 3.49 | –
22 | Cc1cc(F)c(-n2nc(C(F)(F)F)n(CC(F)(F)F)c2=O)cc1[S+]([O-])CC(F)(F)F (stereo not shown) [Example 56] | – | 3.20 | 3.09 | efficacy (Tetranychus urticae; application rate of 100 g/ha): 90%
23 | Cc1cc(F)c(-n2nc(Oc3ccccc3)n(C)c2=O)cc1SCC(F)(F)F [Example 158] | 100% | 3.70 | 3.66 | –
24 | CCCc1nn(-c2cc(SCC(F)(F)F)c(C)cc2F)c(=O)n1C1CC1 [Example 79] | 100% | 3.64 | 3.56 | –
25 | Cc1cc(C)c([S+]([O-])CC(F)(F)F)cc1-n1ncn(C(C)(C)C)c1=O (stereo not shown) [Example 372] | 100% | 2.34 | 2.28 | –
26 | Cc1cc(F)c(-n2nc(-c3ccccc3)oc2=O)cc1SCC(F)(F)F [Example 457] | 90% | 4.35 | 4.29 | –
27 | Cc1cc(F)c(-n2nc(OCC3CC3)n(C3CC3)c2=O)cc1SCC(F)(F)F [Example 134] | 90% | 3.99 | 3.90 | –
28 | Cc1cc(F)c(-n2nc(N(C)C)n(N)c2=O)cc1SCC(F)(F)F [Example 220] | 90% | 2.51 | 2.48 | –
29 | COc1nn(-c2ccc(C)c(SCC(F)(F)F)c2)c(=O)n1C1CC1 [Example 90] | 100% | 3.74 | 3.67 | –
30 | CCC(C)Oc1nn(-c2cc([S+]([O-])CC(F)(F)F)c(C)cc2F)c(=O)n1C1CC1 (stereo not shown) [Example 141] | 90% | 3.18 | 3.12 | –
31 | Cc1cc(F)c(-n2nc(C3CC3)n(C(C)C)c2=O)cc1[S+]([O-])CC(F)(F)F (racemic) [Example 353] | 100% | 2.58 | 2.55 | –
32 | Cc1cc(F)c(-n2nc(C3CC3)n(C(C)C)c2=S)cc1SCC(F)(F)F [Example 498] | 100% | 4.24 | 4.14 | –
33 | Cc1cc(F)c(-n2nc([S+]([O-])CC3CC3)n(C)c2=O)cc1[S+]([O-])CC(F)(F)F (stereo not shown) [Example 248] | 100% | 2.03 | 1.98 | –
34 | C=CCOc1nn(-c2cc(SCC(F)(F)F)c(C)cc2F)c(=O)n1C1CC1 [Example 375] | 100% | 3.74 | 3.70 | –
35 | Cc1cc(F)c(-n2nc([S+]([O-])Cc3ccccc3)n(C)c2=O)cc1[S+]([O-])CC(F)(F)F (stereo not shown) [Example 250] | 100% | 2.34 | 2.29 | –
36 | Cc1cc(F)c(-n2nc(SC(C)C)n(C3CC3)c2=O)cc1SCC(F)(F)F [Example 268] | 100% | 4.37 | 4.28 | –
37 | Cc1cc(F)c(-n2nc(C3CC3)n(C3CC3)c2=O)cc1[S+]([O-])CC(F)(F)F (racemic) [Example 66] | 100% | 2.31 | 2.33 | –
